Test results taken from the NIST ThermoML archive (doi:10.1021/je060271a).

Conditions: 283.14 K, Liquid, Vibrating tube method

CCCCCCC(=O)OCC(COC(=O)CCCCCC)(COC(=O)CCCCCC)COC(=O)CCCCCC [pentaerythritol tetraheptanoate]
Conditions | mass density [kg/m3]
23079 kPa | 998.5
23110 kPa | 998.5
23147 kPa | 998.6
23178 kPa | 998.6
23209 kPa | 998.6
23246 kPa | 998.5
23277 kPa | 998.7
23308 kPa | 998.6
23339 kPa | 998.7
23377 kPa | 998.7
23410 kPa | 998.6
23442 kPa | 998.7
23480 kPa | 998.8
23512 kPa | 998.7
23543 kPa | 998.7
23576 kPa | 998.8
23614 kPa | 998.8
23646 kPa | 998.8
23685 kPa | 998.8
23717 kPa | 998.8
23749 kPa | 998.9
23788 kPa | 998.8
23821 kPa | 998.9
23854 kPa | 999
23888 kPa | 998.9
23927 kPa | 998.9
23960 kPa | 998.9
23999 kPa | 998.9
24032 kPa | 998.9
24066 kPa | 999.1
24099 kPa | 998.9
24140 kPa | 999.1
24173 kPa | 999.1
24213 kPa | 999
24247 kPa | 999
24281 kPa | 999.1
24324 kPa | 999.2
24358 kPa | 999.1
24392 kPa | 999.2
24426 kPa | 999.3
24468 kPa | 999.3
24502 kPa | 999.3
24543 kPa | 999.3
24578 kPa | 999.3
24613 kPa | 999.2
24655 kPa | 999.4
24726 kPa | 999.4
24769 kPa | 999.4
24841 kPa | 999.4
24878 kPa | 999.5
24921 kPa | 999.5
24958 kPa | 999.4
24994 kPa | 999.5
25038 kPa | 999.6
25075 kPa | 999.6
25112 kPa | 999.6
25155 kPa | 999.5
25192 kPa | 999.6
25230 kPa | 999.6
25277 kPa | 999.6
25314 kPa | 999.6
25352 kPa | 999.6
25389 kPa | 999.7
25427 kPa | 999.8
25472 kPa | 999.8
25511 kPa | 999.8
25549 kPa | 999.8
25595 kPa | 999.7
25633 kPa | 999.9
25672 kPa | 999.8
25718 kPa | 1000
25758 kPa | 1000
25799 kPa | 999.9
25839 kPa | 999.8
25886 kPa | 999.9
25918 kPa | 1000.1
26265 kPa | 1000.1
26414 kPa | 1000.4
26496 kPa | 1000.3
26525 kPa | 1000.3
26556 kPa | 1000.2
26581 kPa | 1000.3
26612 kPa | 1000.3
26638 kPa | 1000.3
26665 kPa | 1000.4
26696 kPa | 1000.4
26722 kPa | 1000.4
26776 kPa | 1000.3
26950 kPa | 1000.5
27004 kPa | 1000.4
27030 kPa | 1000.6
27063 kPa | 1000.7
27090 kPa | 1000.6
27291 kPa | 1000.7
27380 kPa | 1000.7
27414 kPa | 1000.6
27442 kPa | 1000.8
27476 kPa | 1000.8
27506 kPa | 1000.7
27536 kPa | 1000.8
27566 kPa | 1000.9
27704 kPa | 1000.9
27724 kPa | 1000.9
27744 kPa | 1000.9
27768 kPa | 1000.9
27787 kPa | 1001
27808 kPa | 1000.9
27832 kPa | 1000.9
27851 kPa | 1001
27872 kPa | 1001
27980 kPa | 1001
28001 kPa | 1001
